In patent US20110166030A1, “Prediction of response to docetaxel therapy based on the presence of TMPRSSG2:ERG fusion in circulating tumor cells” (priority 2009, published 2011):

Experiments:
[1] = system: metastatic prostate cancer; test: Response to therapy in metastatic androgen-independent prostate cancer patients (reduction in PSA levels); format: in vivo, human
Description: Thus, disclosed herein is a method of expression profiling of gene of interest in CTCs using real time quantitative RT-PCR. Briefly, in a proof of concept, in total RNA isolated from circulating tumor cells of each of 40 metastatic prostate cancer patients gene expression profiles of 14 candidate genes were investigated by real time quantitative RT-PCR. […] Based on this application of RT-PCR based detection of the TMPRSS2-ERG fusion gene expression, patients are stratified for effective treatment with docetaxel chemotherapy, with an overall improvement in disease outcome and quality of life with very high specificity.
Briefly, the 40 subjects were recruited from the Cedars-Sinai Medical Center in Los Angeles. Appropriate IRB approvals were obtained prior to patient sample collection. The inclusion criteria consisted of: patient must be at least 18 years old and with clinical diagnosis of Stage IV (metastatic) prostate cancer; patients must provide written consent/authorization to participate in this study, no signs or symptoms of active infection, willing and able to comply with procedures required in this protocol.
All patients were receiving treatments at Cedars-Sinai Medical Center at Los Angeles and all have metastatic prostate cancers. […]

[2] = system: castration resistant prostate cancer (CRPC); test: CEC, CTC, ET-1 and TF levels during docetaxel treatment of CRPC patients; format: in vivo, human
Method: Blood samples were collected from 231 patients with CRPC by venesection into 2×10 mL CellSave tubes (Veridex, LLC, Raritan, N.J.) and 1×6 mL serum tube in a multi-center prospective study. One CellSave tube was used to determine the number of CTC for prediction of OS. Results on CTC levels measured in this group have been previously published. The second collected CellSave tube was used to determine CEC numbers.
In order to assess a homogenous group of patients with respect to systemic therapy, we selected all who were scheduled to receive docetaxel or a docetaxel containing regimen (n=162) from the 231 patients. Treatment was continued until progression or unacceptable toxicity. Main eligibility criteria included age ≧18 years, pathological diagnosis of adenocarcinoma of the prostate, first or later line of chemotherapy, serum testosterone <1.7 nmol/L ([…]), Eastern Cooperative Oncology Group (ECOG) performance status 0-2, pretreatment serum PSA≧5 ng/mL, PSA progression (rises above a reference value) despite androgen deprivation therapy, and ability to sign informed consent. This study was approved by the local Institutional Medical Ethical Review Boards and is in agreement with the Helsinki declaration of 2000. Written informed consent was obtained from all patients prior to participation.
CEC and CTC counts were determined prior to initiation of chemotherapy and after 2-5 weeks (first follow-up draw) and 6-8 weeks (second follow-up draw) of treatment. Serum concentrations of ET-1 and TF were also determined at these same time points.
The CellTracks® AutoPrep® and CellTracks Analyzer II® Systems (both Veridex, LLC, Raritan, N.J.) were used to count CTC and CEC. CTC were defined as intact cells positive for the nuclear stain 4′ 6-diamidinophenylindole (DAPI), the epithelial cell adhesion molecule (EpCAM), and for cytokeratins 8, 18 and 19 that also lacked expression of the panleukocyte marker CD45. CEC were identified as intact cells positive for DAPI, CD146 and CD105 that also lacked expression of CD45.
The technical details of both assays have been published previously. […]
Serum concentrations (pg/mL) of ET-1 and TF-1 were determined by ELISA. […] Absorbance was read at 450 nm using a Titertek 212 MS microplate reader (Titertek, Huntsville, Ala.). […]
Longitudinal biomarker data were analyzed using a random effects linear regression model using the maximum likelihood random effects estimator (the “xtreg, mle” command in STATA). […] To determine a cutoff value for survival analysis of CEC numbers and serum concentrations of ET-1 and TF, patient data were first stratified according percentiles (p0-p25; p25-p50, p50-p75, and p75-p100), in which either their baseline value or the change between baseline values and those determined at 2-5 weeks would fall. […]

CC(=O)O[C@@]12CO[C@@H]1C[C@H](O)[C@@]1(C)C(=O)[C@H](O)C3=C(C)[C@@H](OC(=O)[C@H](O)[C@@H](NC(=O)OC(C)(C)C)c4ccccc4)C[C@@](O)([C@@H](OC(=O)c4ccccc4)[C@H]21)C3(C)C [Docetaxel]
Response to treatment, Number of Patients ([1]; 40 metastatic prostate cancer patients, Tax 14 patients, Tax + RAD 11 patients treated): 7 | Patients with T1E4 or T2E4 fusion gene expression in CTCs who responded to the therapy ([1]; five fusion-positive patients received Docetaxel-based therapy (Docetaxel or Docetaxel plus RAD001)): 5 patients | Change in CTC numbers ([2]; after 2-5 weeks of treatment, cells/7.5 mL blood): decreased significantly | Change in serum TF ([2]; after 6-8 weeks of therapy vs baseline and first follow-up draw, ELISA): significant decrease | Serum concentrations of ET-1 during treatment ([2]; baseline, 2-5 and 6-8 weeks, ELISA): remained constant | Change in CEC numbers vs baseline ([2]; first follow-up draw, 2-5 weeks after initiation of docetaxel, cells/4.0 mL blood): significant increase
